{
  "source": "patent US20230381139A1",
  "about": "“METHODS OF TREATING AND/OR PREVENTING ALZHEIMER’S DISEASE WITH R-CARVEDILOL” (priority 2020, published 2023)",
  "assay_type_in_all_cases": "in vivo, mouse",
  "key": {"[1]": {"tested_on": "Aβ plaques", "experiment": "Aβ plaques (immunohistochemical staining) in 3×TG+/− mice", "details": "12-15 months old 3×TG+/− mice, 3.2 mg/kg/day for one month; vs DMSO", "method": "Genetically engineered mice of 12-15 months old, 3×TG+/− (Oddo et al., 2003), RyR2-E4872Q+/− (EQ+/−)(Chen et al., 2014), 3×TG+/−/RyR2-E48720+/− (3×TG+/−/EQ+/−), and WT littermates of both sexes were used. Sex differences, which may produce biological variables, were not investigated in this study. R-carvedilol (R-CV) (3.2 mg/kg/day) and vehicle control (DMSO) were delivered to 3×TG+/− mice in drinking water for one month. As shown previously, only heterozygous RyR2-E4872Q+/− mutant mice were produced as homozygous E4872Q+/+mutation is embryonic lethal (Chen et al., 2014). Functional RyR2s are tetrameric channels formed by 4 RyR2 monomers. The heterozygous E4872Q+/− mutant mice (harboring one WT allele and one E4872Q mutant allele) will produce a mixture of homo- and hetero-tetrameric channels that contain the WT, E48720 mutant, or both WT/E4872Q mutant monomers. Thus, the RyR2-E4872Q mutation can exert its negative impact not only on the function of the E4872Q homo-tetramers, but also on the function of the WT monomer in the WT/E4872Q hetero-tetrameric channels.\nMice of different ages and genotypes were anesthetized and transcardially perfused with 10% neutral buffered formalin (NBF). Whole brains were removed and post-fixed in NBF for at least 24 h. The fixed brains were then embedded in paraffin after dehydration and diaphanization. […]"}, "[2]": {"tested_on": "Aβ", "experiment": "Aβ accumulation (immunohistochemical staining and immunoblotting) in 5×FAD+/− mice", "details": "5×FAD+/− mice 3-4, 4-5 and 6-7 months old after 1-month treatment with 3.2 mg/kg/day; vs DMSO", "method": "Adult genetically engineered mice, 5×FAD^+/− (Oakley et al., 2006), RyR2-E4872Q^+/− (EQ^+/−) (Chen et al., 2014), 5×FAD^+/−/RyR2-E4872Q^+/− (5×FAD^+/−/EQ^+/−), and wildtype (WT) littermates of both sexes were used. R-carvedilol (R-CV) (at doses of 0.8, 1.6 or 3.2 mg/kg/day), racemic carvedilol (3.2 mg/kg/day), and vehicle control (DMSO) were delivered to 5×FAD^+/− mice in drinking water for one month, starting at different ages before (2-3 months old) or after (3-4 months old) the occurrence of AD pathologies (Oakley et al., 2006). To assess the effects of genetically and pharmacologically limiting RyR2 open time on the prevention and rescue of AD deficits in different stages (early, moderate, and late) of AD progression, animals at different ages (from 2-15 months) were used. As reported (Oakley et al., 2006), there was an age-dependence of AD progression in the 5×FAD^+/− mice. No sex-dependent differences in AD progression in these mice was observed. For 2-photon Ca^2+ imaging experiments, 5×FAD, RyR2 WT, and RyR2 mutant mice were cross-bred with the heterozygous Thy1-GCaMP6f transgenic mice (Chen et al., 2012; Chen et al., 2013) (GP5.17, JAX 025393) to express the GCaMP6f Ca^2+ sensing probe (driven by the Thy1 promotor) in hippocampal neurons in each of the genotypes used.\nImmunoblotting analysis was carried out using the method described previously (Rosen et al., 2010). […]"}, "[3]": {"tested_on": "hippocampal CA3-CA1 pathway of 3×TG+/− mice", "experiment": "Long-term potentiation recording in hippocampal slices from treated 3×TG+/− mice", "details": "brain slices from 12-15 months old 3×TG+/− mice, 3.2 mg/kg/day for one month; vs DMSO", "method": "Schaffer collateral fibers were stimulated at the CA3 subfield to record field excitatory postsynaptic potentials (fEPSPs) in the CA1 stratum radiatum of transverse hippocampal slices ([…]) from all genotypes and drug-treated mice at different ages. After recovering at room temperature for 1 h (or 2 h for brain slices from drug-treated mice), hippocampal slices were allowed to recover in the recording chamber for additional 10 min. To evaluate basal synaptic transmission, different stimulation strengths (0 μA to 200 μA in steps of 20 μA) were applied and plotted fEPSP slopes versus the current input to compare the slope of input/output (I/O) curves of fEPSP. In the experiments that followed, stimulus current was adjusted so that fEPSP stabilized at 40-50% of maximum. Baseline was recorded for at least […] until the differences among fEPSP slopes were within 10%. Long-term potentiation (LTP) was induced using a tetanic high-frequency stimulation (HFS; 4 trains of 100 pulses at 100 Hz, with 20-sec intervals). Synaptic responses were recorded for at least 60 min after tetanization and quantified as the slope of the evoked fEPSP as percentage of the baseline."}},
  "data": [
    {"compound": "COc1ccccc1OCCNC[C@@H](O)COc1cccc2[nH]c3ccccc3c12", "note": "[R-carvedilol, R-(+)-carvedilol]", "values": [
      {"measurement": "area of Aβ plaques in the hippocampal region", "setting": "[1]", "value": "no significant difference"},
      {"measurement": "number of Aβ plaques in the hippocampal region", "setting": "[1]", "value": "no significant difference"},
      {"measurement": "Aβ accumulation (plaques, total Aβ and Aβ (1-42) levels)", "setting": "[2]", "value": "without affecting"},
      {"measurement": "hippocampal LTP (potentiation of fEPSP slope)", "setting": "[3]", "value": "significantly enhanced"}
    ]}
  ]
}
